Consider 22 compounds from US4595700A, “Thiol based collagenase inhibitors” (G. D. Searle & Co., priority 1985, dated 1986).

Where “and” joins values, the source holds several entries; their conditions need not be identical. Equal entries are not always repeated.

For one assay, the target named is T1, Human Rheumatoid Synovial collagenase (Homo sapiens, UniProt P03956).
T1 construct: from tissue; host or cells: rheumatoid synovium (tissue or synovial cell culture not distinguished)
T1 sequence (P03956 100-469): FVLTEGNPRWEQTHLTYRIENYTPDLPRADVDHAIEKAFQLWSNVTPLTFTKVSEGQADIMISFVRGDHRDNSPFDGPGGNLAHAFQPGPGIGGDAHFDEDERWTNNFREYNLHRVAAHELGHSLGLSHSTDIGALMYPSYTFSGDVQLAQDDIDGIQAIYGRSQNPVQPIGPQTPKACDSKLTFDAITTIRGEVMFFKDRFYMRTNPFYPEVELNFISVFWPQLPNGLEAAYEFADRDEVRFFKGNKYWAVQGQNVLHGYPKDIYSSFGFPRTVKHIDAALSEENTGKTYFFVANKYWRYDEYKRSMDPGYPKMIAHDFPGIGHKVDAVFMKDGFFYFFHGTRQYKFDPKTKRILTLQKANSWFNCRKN
Put plainly: inhibition of collagenase (acetyl 14C collagen digestion, Cawston and Barrett). The class given is biochemical. The following applies: Table 2; 37° C., 16 hours, native acetyl 14C collagen, pH 7.6; read-out: IC50 (μM) Human Rheumatoid Synovial collagenase. How it is done:
This was determined following the procedure of Cawston and Barrett, Anal. Biochem., 99, 340-345 (1979) whereby the 1 mM of the inhibitor being tested or dilutions thereof are incubated at 37° C. for 16 hours with native collagen and collagenase (buffered with Tris HCl--CaCl2; pH 7.6). The collagen is acetyl ^14 C collagen. The samples are centrifuged to sediment undigested collagen and an aliquot of the radiactive supernatant removed for assay on a scintillation counter as a measure of hydrolysis. The collagenase activity in the presence of 1 mM inhibitor, or a dilution thereof, is compared to activity in a control devoid of inhibitor and the results reported as that inhibitor concentration effecting 50% inhibition of the collagenase.
With `CNC(=O)[C@H](Cc1ccc(OC)cc1)NC(=O)C(CC(C)C)C(C)S` (single isomer, unassigned) [Example 1 Isomer A1, N-[2-(1-Mercaptoethyl)-4-methylpentanoyl]-O-methyl-L-tyrosine N-Methylamide], the concentration for half-maximal inhibition (IC50) (commonly the point on the concentration scale where inhibition reaches its midpoint) was found to be 19 µM.

As to `CNC(=O)[C@H](Cc1ccc(OC)cc1)NC(=O)C(CC(C)C)C(C)S` (single isomer, unassigned) [Example 1 Isomer A2, N-[2-(1-Mercaptoethyl)-4-methylpentanoyl]-O-methyl-L-tyrosine N-Methylamide], the IC50 is 13 µM.

Consider `CNC(=O)[C@H](Cc1ccc(OC)cc1)NC(=O)C(CC(C)C)C(C)S` (single isomer, unassigned) [Example 1 Isomer B1, N-[2-(1-Mercaptoethyl)-4-methylpentanoyl]-O-methyl-L-tyrosine N-Methylamide], for which the IC50 came out at 0.22 µM.

For the compound `CNC(=O)[C@H](Cc1ccc(OC)cc1)NC(=O)C(CC(C)C)C(C)S` (single isomer, unassigned) [Example 1 Isomer B2, N-[2-(1-Mercaptoethyl)-4-methylpentanoyl]-O-methyl-L-tyrosine N-Methylamide], the 50% inhibitory concentration (IC50) stood at 1.5 µM.

For `CNC(=O)[C@H](Cc1ccc(OC)cc1)NC(=O)C(CC(C)C)C(S)c1ccccc1` (single isomer, unassigned) [Example 2 Isomer A1, N-[2-(1-S-Mercaptobenzyl)-4-methylpentanoyl]-O-methyl-L-tyrosine-N-methylamide], the IC50 was found to be 0.27 µM.

Turning to `CNC(=O)[C@H](Cc1ccc(OC)cc1)NC(=O)C(CC(C)C)C(S)c1ccccc1` (single isomer, unassigned) [Example 2 Isomer A2, N-[2-(1-S-Mercaptobenzyl)-4-methylpentanoyl]-O-methyl-L-tyrosine-N-methylamide], the IC50 came to 1.71 µM.

`CNC(=O)[C@H](Cc1ccc(OC)cc1)NC(=O)C(CC(C)C)C(S)c1ccccc1` (single isomer, unassigned) [Example 2 Isomer B1, N-[2-(1-S-Mercaptobenzyl)-4-methylpentanoyl]-O-methyl-L-tyrosine-N-methylamide]: the IC50 was 3.9 µM.

For `CNC(=O)[C@H](Cc1ccc(OC)cc1)NC(=O)C(CC(C)C)C(S)c1ccccc1` (single isomer, unassigned) [Example 2 Isomer B2, N-[2-(1-S-Mercaptobenzyl)-4-methylpentanoyl]-O-methyl-L-tyrosine-N-methylamide], the IC50 was determined as 12 µM.

Regarding `CNC(=O)[C@H](Cc1ccc(OC)cc1)NC(=O)C(CC(C)C)C(S)C(C)C` (single isomer, unassigned) [Example 3 Isomer A, N-(2-(1-Mercapto-2-methylpropyl)-4-methylpentanoyl)-O-methyl-L-tyrosine N-Methyl amide], the IC50 was found to be 2 µM.

As to `CNC(=O)[C@H](Cc1ccc(OC)cc1)NC(=O)C(CC(C)C)C(S)C(C)C` (single isomer, unassigned) [Example 3 Isomer B, N-(2-(1-Mercapto-2-methylpropyl)-4-methylpentanoyl)-O-methyl-L-tyrosine N-Methyl amide], the IC50 came out at 5 µM.

As for `CCCCCCC(C(=O)N[C@@H](Cc1ccc(OC)cc1)C(=O)NC)C(C)S` (single isomer, unassigned) [Example 4 Isomer A, N-[2-(1-mercaptoethyl)octanoyl]-O-methyl-L-tyrosine N-methylamide], the IC50 was 5 µM.

`CCCCCCC(C(=O)N[C@@H](Cc1ccc(OC)cc1)C(=O)NC)C(C)S` (single isomer, unassigned) [Example 4 Isomer B, N-[2-(1-mercaptoethyl)octanoyl]-O-methyl-L-tyrosine N-methylamide]: the IC50 was 140 µM.

On to `CCCCC(C(=O)N[C@@H](Cc1ccc(OC)cc1)C(=O)NC)C(C)S` (single isomer, unassigned) [Example 5 Isomer A, N-[2-(1-Mercaptoethyl)hexanoyl]-O-methyl-L-tyrosine N-methyl amide], for which the IC50 was found to be 0.2 µM.

Take `CCCCC(C(=O)N[C@@H](Cc1ccc(OC)cc1)C(=O)NC)C(C)S` (single isomer, unassigned) [Example 5 Isomer B, N-[2-(1-Mercaptoethyl)hexanoyl]-O-methyl-L-tyrosine N-methyl amide]: the IC50 worked out at 1 µM.

Turning to `CNC(=O)[C@@H](NC(=O)C(CC(C)C)C(C)S)[C@@H](C)OCc1ccccc1` (single isomer, unassigned) [Example 6 Isomer A, N-[2-(1-Mercaptoethyl)-4-methylpentanoyl]-O-benzyl-L-threonine N-Methylamide], the IC50 came to 0.45 µM.

For the compound `CNC(=O)[C@@H](NC(=O)C(CC(C)C)C(C)S)[C@@H](C)OCc1ccccc1` (single isomer, unassigned) [Example 6 Isomer B, N-[2-(1-Mercaptoethyl)-4-methylpentanoyl]-O-benzyl-L-threonine N-Methylamide], the IC50 was 4.9 µM.

As to `CCCCNC(=O)[C@H](C)NC(=O)C(CC(C)C)C(C)S` (single isomer, unassigned) [Example 7 Isomer A, N-[2-(1-S-Mercaptoethyl)-4-methyl-pentanoyl]-L-alanine N-butylamide], the IC50 came out at 4.9 µM.

`CCCCNC(=O)[C@H](C)NC(=O)C(CC(C)C)C(C)S` (single isomer, unassigned) [Example 7 Isomer B, N-[2-(1-S-Mercaptoethyl)-4-methyl-pentanoyl]-L-alanine N-butylamide]: the IC50 was 2 µM.

Turning to `CCCCNC(=O)[C@H](C)NC(=O)C(CC(C)C)C(C)S` (single isomer, unassigned) [Example 7 Isomer C, N-[2-(1-S-Mercaptoethyl)-4-methyl-pentanoyl]-L-alanine N-butylamide], the IC50 was 1.2 µM.

The same assay, now with this note: Table 3; all compounds S stereochemistry at c; 37° C., 16 hours, pH 7.6; read-out: IC50 against human rheumatoid sinovial collagenase.
`CNC(=O)[C@H](Cc1ccc(OC)cc1)NC(=O)C(CC(C)C)C(C)S` (single isomer, unassigned) [Example 1 Isomer B1, N-[2-(1-Mercaptoethyl)-4-methylpentanoyl]-O-methyl-L-tyrosine N-Methylamide]: the IC50 was 0.22 µM.

Turning to `CNC(=O)[C@@H](NC(=O)C(CC(C)C)C(C)S)[C@@H](C)OCc1ccccc1` (single isomer, unassigned) [Example 6 Isomer A, N-[2-(1-Mercaptoethyl)-4-methylpentanoyl]-O-benzyl-L-threonine N-Methylamide], the concentration for half-maximal inhibition (IC50) came out at 0.45 µM.

`CCCCNC(=O)[C@H](C)NC(=O)C(CC(C)C)C(C)S` (single isomer, unassigned) [Example 7 Isomer C, N-[2-(1-S-Mercaptoethyl)-4-methyl-pentanoyl]-L-alanine N-butylamide]: the IC50 turned out to be 1.2 µM.

For the compound `CNC(=O)[C@H](Cc1ccc(OC)cc1)NC(=O)C(CS)CC(C)C` (some centres unmarked) [reference compound], the IC50 was found to be 3.6 µM.

`CCCCNC(=O)[C@H](C)NC(=O)C(CS)CC(C)C` (some centres unmarked) [reference compound]: the IC50 was determined as 37 µM.

On to `CNC(=O)[C@@H](NC(=O)C(CS)CC(C)C)C(C)OCc1ccccc1` (some centres unmarked) [reference compound], for which the IC50 was 4.8 µM.

The same assay, now with this note: Table 3 footnote 4; individual determinations; read-out: IC50, individual results (footnote 4: mean of two results).
On to `CCCCNC(=O)[C@H](C)NC(=O)C(CS)CC(C)C` (some centres unmarked) [reference compound], for which the IC50 was 25 µM and 44 µM.
